Data as given in patent US11214803B2, “Modulators of YAP1 expression” (Ionis Pharmaceuticals, Inc., priority 2019, dated 2022).
Strand notation (5' to 3'): a small letter for the sugar, then the base; units joined by * are phosphorothioate-linked, units joined directly phosphodiester-linked; [ ] holds rarer units or linkages, { } end groups; capitals alone tell only the bases. k = constrained ethyl (cEt); [5mC] = 5-methylcytosine; d = 2'-deoxy (DNA)

Test system: Yap1 mRNA
Experiment: Antisense inhibition of human Yap1 in A-431 cells by cEt gapmers, single dose (Example 4, RTS4814)
Type: cell-based
Outline: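 A-431 cells took up 3-10-3 cEt gapmers (16-mer, full phosphorothioate, 5-methylcytosines) by free uptake at 2,000 nM for about 48 h. Yap1 mRNA was quantified by qRT-PCR, normalized to total RNA (RIBOGREEN), and reported as % of untreated control.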

[1] = Table 17, A-431 cells, 5,000 cells per well, free uptake, 2,000 nM, approximately 48 hours, RTS4814, normalized to RIBOGREEN, Yap1 mRNA relative to untreated control cells
[2] = Table 14, A-431 cells, 5,000 cells per well, free uptake, 2,000 nM, approximately 48 hours, RTS4814, normalized to RIBOGREEN, Yap1 mRNA relative to untreated control, * = targets amplicon region of primer probe set
[3] = table after Table 37, headed TABLE 32 (gapmers targeting SEQ ID NO.: 3), A-431 cells, free uptake, 2,000 nM, approximately 48 hours, RTS4814
[4] = Yap1 mRNA remaining as percent of untreated control, 3-10-3 cEt gapmers, A-431 cells, Table 36
[5] = Table 16, A-431 cells, 5,000 cells per well, free uptake, 2,000 nM, approximately 48 hours, RTS4814, normalized to RIBOGREEN, Yap1 mRNA relative to untreated control cells
[6] = Yap1 mRNA remaining as percent of untreated control, 3-10-3 cEt gapmers, A-431 cells, Table 37
[7] = Table 15, A-431 cells, 5,000 cells per well, free uptake, 2,000 nM, approximately 48 hours, RTS4814, normalized to RIBOGREEN, Yap1 mRNA relative to untreated control, * = targets amplicon region of primer probe set

## 1074531 (k[5mC]*kA*k[5mC]*dT*dA*dA*dA*d[5mC]*dT*dA*d[5mC]*dT*dT*k[5mC]*kA*kA; antisense) [Compound 1074531]
[1]
  YAP1 (% UTC): 73 % UTC

## 1075875 (kA*k[5mC]*kT*dT*dA*dA*d[5mC]*dA*dA*d[5mC]*d[5mC]*d[5mC]*dT*kA*k[5mC]*kG; antisense) [Compound 1075875]
[1]
  YAP1 (% UTC): 72 % UTC

## 1075075 (antisense kA*kA*kT*dT*dT*dT*dA*dT*dA*dA*dG*d[5mC]*d[5mC]*k[5mC]*kA*k[5mC]) [Compound 1075075]
[1]
  YAP1 (% UTC): 9 % UTC

## 1075907 (kA*kA*kT*dT*dA*d[5mC]*dT*dA*d[5mC]*dT*dG*dG*d[5mC]*k[5mC]*kA*kT; antisense) [Compound 1075907]
[1]
  YAP1 (% UTC): 55 % UTC

## 1074368 (antisense kG*kA*kT*dA*dG*dT*dA*dT*d[5mC]*dA*d[5mC]*d[5mC]*dT*kG*kT*kA) [Compound 1074368]
[2]
  YAP1 (% UTC): 8 % UTC

## 1074947 (antisense kT*k[5mC]*k[5mC]*dA*dA*dA*dA*d[5mC]*d[5mC]*d[5mC]*dT*dT*dT*kG*kG*kT) [Compound 1074947]
[1]
  YAP1 (% UTC): 99 % UTC

## 1074371 (antisense kG*kT*kT*dG*dA*dT*dA*dG*dT*dA*dT*d[5mC]*dA*k[5mC]*k[5mC]*kT) [Compound 1074371]
[1]
  YAP1 (% UTC): 31 % UTC

## 1074884 (kG*kG*kG*d[5mC]*dT*dA*dA*d[5mC]*dT*d[5mC]*d[5mC]*dT*dG*k[5mC]*k[5mC]*kG; antisense) [compound 1074884]
[3]
  YAP1 (% UTC): 110 % UTC

## 1076182 (k[5mC]*kT*kA*dT*dA*dA*dT*dT*dA*dG*d[5mC]*d[5mC]*dA*kA*k[5mC]*k[5mC]; antisense) [compound 1076182]
[4]
  YAP1 (% UTC): 15 % UTC

## 1075648 (kT*k[5mC]*kA*dA*dT*dA*dA*dA*dG*dT*dG*dG*dG*kA*k[5mC]*kT; antisense) [Compound 1075648]
[2]
  YAP1 (% UTC): 67 % UTC

## 1076160 (kT*kT*kA*dT*dA*d[5mC]*dT*dA*dG*dT*dA*d[5mC]*dG*kG*k[5mC]*kA; antisense) [Compound 1076160]
[2]
  YAP1 (% UTC): 20 % UTC

## 1074722 (antisense kA*kG*kG*dA*dA*dG*dA*dT*d[5mC]*dT*d[5mC]*d[5mC]*dA*kT*kA*kT) [Compound 1074722]
[5]
  YAP1 (% UTC): 57 % UTC

## 1076375 (antisense kT*kA*kT*dA*dA*d[5mC]*dG*dG*dA*dT*dA*dT*dA*k[5mC]*kA*kA) [compound 1076375]
[6]
  YAP1 (% UTC): 22 % UTC

## 1075030 (antisense kT*kT*kA*dA*dT*dA*dT*dT*d[5mC]*dG*dA*d[5mC]*dA*k[5mC]*kT*kG) [compound 1075030]
[4]
  YAP1 (% UTC): 37 % UTC

## 1075926 (antisense kG*kT*kA*dG*dA*dA*d[5mC]*d[5mC]*dT*dA*dT*dA*dT*kT*kA*kT) [compound 1075926]
[4]
  YAP1 (% UTC): 25 % UTC

## 1074210 (antisense kT*k[5mC]*k[5mC]*dG*dG*dA*dG*d[5mC]*d[5mC]*dT*d[5mC]*dA*dT*kG*kG*kG) [Compound 1074210]
[5]
  YAP1 (% UTC): 113 % UTC

## 1075606 (antisense kG*k[5mC]*kT*dA*dA*dA*d[5mC]*d[5mC]*dT*dA*d[5mC]*dA*d[5mC]*kG*k[5mC]*kT) [compound 1075606]
[4]
  YAP1 (% UTC): 82 % UTC

## 1075328 (k[5mC]*kT*k[5mC]*dG*d[5mC]*dA*dA*dA*dG*d[5mC]*d[5mC]*dT*d[5mC]*kT*kT*k[5mC]; antisense) [Compound 1075328]
[2]
  YAP1 (% UTC): 21 % UTC

## 1074115 (antisense kA*kG*kA*dA*d[5mC]*dT*dT*dT*dT*dT*d[5mC]*d[5mC]*d[5mC]*kT*k[5mC]*k[5mC]) [Compound 1074115]
[1]
  YAP1 (% UTC): 33 % UTC

## 1074198 (antisense kT*kT*kG*d[5mC]*d[5mC]*d[5mC]*dG*dG*dG*dT*d[5mC]*d[5mC]*dG*kG*kA*k[5mC]) [compound 1074198]
[4]
  YAP1 (% UTC): 112 % UTC

## 1076416 (kA*k[5mC]*k[5mC]*dG*dA*dA*dA*dT*dG*dA*dT*dA*d[5mC]*kT*kG*kA; antisense) [Compound 1076416]
[2]
  YAP1 (% UTC): 8 % UTC

## 1074977 (antisense k[5mC]*kT*kT*dG*dT*dT*d[5mC]*dT*dA*dT*dT*dG*dG*kA*kA*kG) [Compound 1074977]
[7]
  YAP1 (% UTC): 94 % UTC

## 1074978 (antisense kT*kT*kG*d[5mC]*d[5mC]*dA*dG*dT*dT*d[5mC]*dT*dT*dG*kT*kT*k[5mC]) [Compound 1074978]
[5]
  YAP1 (% UTC): 38 % UTC

## 1074882 (kG*k[5mC]*kT*dA*dA*d[5mC]*dT*d[5mC]*d[5mC]*dT*dG*d[5mC]*d[5mC]*kG*kA*kA; antisense) [compound 1074882]
[3]
  YAP1 (% UTC): 73 % UTC

## 1074211 (antisense k[5mC]*kT*kT*d[5mC]*d[5mC]*dG*dG*dA*dG*d[5mC]*d[5mC]*dT*d[5mC]*kA*kT*kG) [Compound 1074211]
[1]
  YAP1 (% UTC): 67 % UTC

## 1075203 (antisense kT*kA*kA*dT*dT*dA*dT*dA*dT*dA*dA*dG*dG*k[5mC]*kT*kG) [Compound 1075203]
[1]
  YAP1 (% UTC): 68 % UTC

## 1074401 (antisense kT*k[5mC]*k[5mC]*dG*dG*dT*dG*d[5mC]*dA*dT*dG*dT*dG*kT*k[5mC]*kT) [Compound 1074401]
[7]
  YAP1 (% UTC): 18 % UTC

## 1074530 (k[5mC]*kT*kA*dA*dA*d[5mC]*dT*dA*d[5mC]*dT*dT*d[5mC]*dA*kA*kA*k[5mC]; antisense) [Compound 1074530]
[5]
  YAP1 (% UTC): 88 % UTC

## 1075873 (k[5mC]*kT*kT*dG*dA*dA*dT*dA*d[5mC]*dT*dA*d[5mC]*dA*k[5mC]*k[5mC]*kA; antisense) [Compound 1075873]
[7]
  YAP1 (% UTC): 16 % UTC

## 1074112 (kT*k[5mC]*k[5mC]*dA*dA*d[5mC]*dT*d[5mC]*d[5mC]*d[5mC]*dT*dT*dG*kA*k[5mC]*kG; antisense) [Compound 1074112]
[2]
  YAP1 (% UTC): 83 % UTC

## 1076343 (antisense kA*kG*kA*d[5mC]*dT*dA*dA*dA*dT*d[5mC]*dT*dT*d[5mC]*k[5mC]*k[5mC]*kT) [compound 1076343]
[6]
  YAP1 (% UTC): 8 % UTC

## 1076067 (kG*k[5mC]*kA*dT*dA*dT*dA*dA*dG*dA*dT*dG*dT*kT*kT*kG; antisense) [Compound 1076067]
[1]
  YAP1 (% UTC): 4 % UTC

## 1075159 (k[5mC]*kA*kA*dA*dA*dA*dA*dT*d[5mC]*dA*d[5mC]*dG*dG*k[5mC]*kA*kA; antisense) [compound 1075159]
[6]
  YAP1 (% UTC): 63 % UTC

## 1074656 (antisense kG*kA*k[5mC]*dT*dT*dA*dA*dT*dT*d[5mC]*dA*dA*dG*kA*kT*kT) [Compound 1074656]
[2]
  YAP1 (% UTC): 31 % UTC

## 1075680 (kA*kT*kT*dA*dT*dT*dA*d[5mC]*d[5mC]*d[5mC]*d[5mC]*dT*dT*k[5mC]*kT*kA; antisense) [Compound 1075680]
[2]
  YAP1 (% UTC): 73 % UTC

## 1074946 (antisense k[5mC]*k[5mC]*kA*dA*dA*dA*d[5mC]*d[5mC]*d[5mC]*dT*dT*dT*dG*kG*kT*k[5mC]) [Compound 1074946]
[5]
  YAP1 (% UTC): 109 % UTC

## 1075575 (antisense kT*kT*kA*d[5mC]*dA*dA*d[5mC]*dA*d[5mC]*dA*dA*dG*dT*k[5mC]*kT*kA) [compound 1075575]
[6]
  YAP1 (% UTC): 55 % UTC

## 1075362 (k[5mC]*kA*kG*dG*dA*dA*dA*dA*dA*dT*d[5mC]*dT*dA*kG*kG*kT; antisense) [Compound 1075362]
[5]
  YAP1 (% UTC): 50 % UTC

## 1074179 (antisense k[5mC]*kG*kG*dG*dA*dT*d[5mC]*d[5mC]*dA*dT*dG*dG*d[5mC]*kT*kT*k[5mC]) [Compound 1074179]
[1]
  YAP1 (% UTC): 49 % UTC

## 1074272 (antisense kT*kA*kT*dA*dG*dT*dA*dA*dA*dT*dT*dT*d[5mC]*kT*k[5mC]*k[5mC]) [Compound 1074272]
[2]
  YAP1 (% UTC): 16 % UTC

## 1074999 (antisense kA*kA*k[5mC]*d[5mC]*dA*dA*d[5mC]*dA*d[5mC]*dG*d[5mC]*dG*dA*k[5mC]*k[5mC]*kT) [compound 1074999]
[6]
  YAP1 (% UTC): 77 % UTC

## 1074145 (antisense kA*kA*kG*d[5mC]*dG*dG*d[5mC]*dG*dA*d[5mC]*dG*dG*d[5mC]*kT*kG*k[5mC]) [Compound 1074145]
[7]
  YAP1 (% UTC): 73 % UTC

## 1076419 (kA*kT*kA*dT*dA*dA*dT*dA*dA*d[5mC]*d[5mC]*d[5mC]*dA*kT*kT*kG; antisense) [Compound 1076419]
[1]
  YAP1 (% UTC): 47 % UTC

## 1074816 (kG*kA*kA*dT*dA*dT*dT*dG*d[5mC]*d[5mC]*dA*d[5mC]*d[5mC]*k[5mC]*kA*k[5mC]; antisense) [Compound 1074816]
[2]
  YAP1 (% UTC): 15 % UTC

## 1075970 (kG*k[5mC]*kT*dT*dA*dA*dA*dA*dG*dG*dA*d[5mC]*dA*kG*kT*kA; antisense) [Compound 1075970]
[5]
  YAP1 (% UTC): 34 % UTC
